PubChem BioAssay AID720604 (Broad Institute, 2013)
Results filed as inconclusive are left out.

System: HUVEC viability, CellTiter-Glo ATP luminescence, 8-48 h
Assay: cytotoxicity in primary human umbilical endothelium – cell-based, CellTiter-Glo ATP luminescence, 8/24/48 h, dry powder, cytotoxicity control for HRAS target identification, dose response (AID 720604)

Row | SMILES | AC50 (measured here: 8 h treatment) | AC50 (measured here: 24 h treatment) | AC50 (measured here: 48 h treatment)
1 | COc1ccc(N(C(=O)CCl)C(C(=O)NCCc2ccccc2)c2cccs2)cc1Cl (stereo not given) | 25.4 µM | 5.53 µM | 5.1 µM
2 | CC(C)(C)OC(=O)NCCOCCOCCOc1ccc(N(C(=O)CCl)C(C(=O)NCCc2ccccc2)c2cccs2)cc1Cl (stereo not given) |  | 7.15 µM | 7.2 µM
